# Legend:
# Italian ryegrass [1] = assay: Test Example 5: herbicidal effect by foliage application, plastic box (Table 20, symbol K); format: in vivo, Italian ryegrass (Lolium multiflorum); settings: foliage application
# Method in brief: (§1)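 Plants were sown into sterilized diluvial soil under about 1.5 cm cover and kept in a greenhouse at 25° C. to 30° C. Fourteen days on, foliage received an even spray of the diluted emulsion. Herbicidal or crop effect was judged three weeks afterwards.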
# windgrass [2] = assay: Test Example 5: herbicidal effect by foliage application, plastic box (Table 20, symbol L); format: in vivo, windgrass (Apera spica-venti); settings: foliage application
# Method in brief: as §1
# lambsquarters [3] = assay: Test Example 4: herbicidal effect by soil treatment (Table 19, symbol O); format: in vivo, lambsquarters (Chenopodium album); settings: amount of applied herbicide 320 g/ha
# Method in brief: (§2)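 Pre-emergence style soil spray: seeds under ~1.5 cm sterilized diluvial soil received a uniform coat of emulsion diluted to the predetermined herbicide amount. Greenhouse 25–30° C; readout at week three on previously defined criteria.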
# chickweed [4] = assay: Test Example 5: herbicidal effect by foliage application, plastic box (Table 20, symbol P); format: in vivo, common chickweed (Stellaria media); settings: foliage application
# Method in brief: as §1
# green foxtail [5] = assay: Test Example 5: herbicidal effect by foliage application, plastic box (Table 20, symbol G); format: in vivo, green foxtail (Setaria viridis); settings: foliage application
# Method in brief: as §1
# barnyard grass [6] = assay: Test Example 3: herbicidal effect by foliage application, Wagner pot (Table 18, symbol H); format: in vivo, barnyard grass (Echinochloa crus-galli); settings: amount of applied herbicide 320 g/ha
# Method in brief: (§3)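 Plants were sown in alluvial soil held under 0.1–0.5 cm standing water and grown 14 days in a greenhouse at 25–30 °C. An emulsifiable formulation, water-diluted to the set dose, was then sprayed onto the foliage, and effects were scored three weeks later using previously defined criteria.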
# windgrass [7] = assay: Test Example 4: herbicidal effect by soil treatment (Table 19, symbol L); format: in vivo, windgrass (Apera spica-venti); settings: amount of applied herbicide 320 g/ha
# Method in brief: as §2
# southern crabgrass [8] = assay: Test Example 5: herbicidal effect by foliage application, plastic box (Table 20, symbol F); format: in vivo, southern crabgrass (Digitaria ciliaris); settings: foliage application
# Method in brief: as §1
# redroot pigweed [9] = assay: Test Example 5: herbicidal effect by foliage application, plastic box (Table 20, symbol N); format: in vivo, redroot pigweed (Amaranthus retroflexus); settings: foliage application
# Method in brief: as §1
# persian speedwell [10] = assay: Test Example 4: herbicidal effect by soil treatment (Table 19, symbol R); format: in vivo, Persian speedwell (Veronica persica); settings: amount of applied herbicide 320 g/ha
# Method in brief: as §2
# wild oat [11] = assay: Test Example 5: herbicidal effect by foliage application, plastic box (Table 20, symbol I); format: in vivo, wild oat (Avena fatua); settings: foliage application
# Method in brief: as §1
# blackgrass [12] = assay: Test Example 5: herbicidal effect by foliage application, plastic box (Table 20, symbol J); format: in vivo, blackgrass (Alopecurus myosuroides); settings: foliage application
# Method in brief: as §1
# lambsquarters [13] = assay: Test Example 5: herbicidal effect by foliage application, plastic box (Table 20, symbol O); format: in vivo, lambsquarters (Chenopodium album); settings: foliage application
# Method in brief: as §1
# persian speedwell [14] = assay: Test Example 5: herbicidal effect by foliage application, plastic box (Table 20, symbol R); format: in vivo, Persian speedwell (Veronica persica); settings: foliage application
# Method in brief: as §1
# blackgrass [15] = assay: Test Example 4: herbicidal effect by soil treatment (Table 19, symbol J); format: in vivo, blackgrass (Alopecurus myosuroides); settings: amount of applied herbicide 320 g/ha
# Method in brief: as §2
# wild oat [16] = assay: Test Example 4: herbicidal effect by soil treatment (Table 19, symbol I); format: in vivo, wild oat (Avena fatua); settings: amount of applied herbicide 320 g/ha
# Method in brief: as §2
# chickweed [17] = assay: Test Example 4: herbicidal effect by soil treatment (Table 19, symbol P); format: in vivo, common chickweed (Stellaria media); settings: amount of applied herbicide 320 g/ha
# Method in brief: as §2
# green foxtail [18] = assay: Test Example 4: herbicidal effect by soil treatment (Table 19, symbol G); format: in vivo, green foxtail (Setaria viridis); settings: amount of applied herbicide 320 g/ha
# Method in brief: as §2
# southern crabgrass [19] = assay: Test Example 4: herbicidal effect by soil treatment (Table 19, symbol F); format: in vivo, southern crabgrass (Digitaria ciliaris); settings: amount of applied herbicide 320 g/ha
# Method in brief: as §2
# rice flat sedge = assay: Test Example 3: herbicidal effect by foliage application, Wagner pot (Table 18, symbol E); format: in vivo, rice flat sedge (Cyperus iria); settings: amount of applied herbicide 320 g/ha
# Method in brief: as §3
# barnyard grass [20] = assay: Test Example 5: herbicidal effect by foliage application, plastic box (Table 20, symbol H); format: in vivo, barnyard grass (Echinochloa crus-galli); settings: foliage application
# Method in brief: as §1
# Italian ryegrass [21] = assay: Test Example 4: herbicidal effect by soil treatment (Table 19, symbol K); format: in vivo, Italian ryegrass (Lolium multiflorum); settings: amount of applied herbicide 320 g/ha
# Method in brief: as §2
# barnyard grass [22] = assay: Test Example 4: herbicidal effect by soil treatment (Table 19, symbol H); format: in vivo, barnyard grass (Echinochloa crus-galli); settings: amount of applied herbicide 320 g/ha
# Method in brief: as §2
# Chinese sprangletop = assay: Test Example 3: herbicidal effect by foliage application, Wagner pot (Table 18, symbol D); format: in vivo, chinese sprangletop (Leptochloa chinensis); settings: amount of applied herbicide 320 g/ha
# Method in brief: as §3
# redroot pigweed [23] = assay: Test Example 4: herbicidal effect by soil treatment (Table 19, symbol N); format: in vivo, redroot pigweed (Amaranthus retroflexus); settings: amount of applied herbicide 320 g/ha
# Method in brief: as §2
# velvetleaf [24] = assay: Test Example 4: herbicidal effect by soil treatment (Table 19, symbol M); format: in vivo, velvetleaf (Abutilon theophrasti); settings: amount of applied herbicide 320 g/ha
# Method in brief: as §2
# velvetleaf [25] = assay: Test Example 5: herbicidal effect by foliage application, plastic box (Table 20, symbol M); format: in vivo, velvetleaf (Abutilon theophrasti); settings: foliage application
# Method in brief: as §1
# [26] = AAH 320 g/ha, evaluated three weeks after application
# [27] = 320 g/ha, three weeks after application
SMILES,"herbicidal effect, O: lambsquarters (lambsquarters [3])",herbicidal effect on H: barnyard grass (barnyard grass [6]),"herbicidal effect, L: windgrass (windgrass [7])","herbicidal effect, R: persian speedwell (persian speedwell [10])","herbicidal effect, J: blackgrass (blackgrass [15])","herbicidal effect, I: wild oat (wild oat [16])","herbicidal effect, P: chickweed (chickweed [17])","herbicidal effect, G: green foxtail (green foxtail [18])","herbicidal effect, F: southern crabgrass (southern crabgrass [19])",herbicidal effect on E: rice flat sedge (rice flat sedge),"herbicidal effect, K: Italian ryegrass (Italian ryegrass [21])","herbicidal effect, H: barnyard grass (barnyard grass [22])",herbicidal effect on D: Chinese sprangletop (Chinese sprangletop),"herbicidal effect, N: redroot pigweed (redroot pigweed [23])","herbicidal effect, M: velvetleaf (velvetleaf [24])",further results
CCn1nc(C)c(O)c(-c2c(-c3ccc(C(F)(F)F)cc3)sc3ccc(F)cc23)c1=O [2-402],1 (Herbicidal rate of 5% or more and less than 20%),5 (Herbicidal rate of 90% or more (almost completely withered)),2 (Herbicidal rate of 20% or more and less than 40%),5 (Herbicidal rate of 90% or more (almost completely withered)),0 (Herbicidal rate of 5% or less (almost no effect)),0 (Herbicidal rate of 5% or less (almost no effect)),4 (Herbicidal rate of 70% or more and less than 90%),0 (Herbicidal rate of 5% or less (almost no effect)),2 (Herbicidal rate of 20% or more and less than 40%),3 (Herbicidal rate of 40% or more and less than 70%),2 (Herbicidal rate of 20% or more and less than 40%),0 (Herbicidal rate of 5% or less (almost no effect)),3 (Herbicidal rate of 40% or more and less than 70%),1 (Herbicidal rate of 5% or more and less than 20%),0 (Herbicidal rate of 5% or less (almost no effect)),"K: Italian ryegrass, herbicidal effect (criteria 0-5) (Italian ryegrass [1]; [26]): 5 (Herbicidal rate of 90% or more (almost completely withered)); L: windgrass, herbicidal effect (criteria 0-5) (windgrass [2]; [26]): 5 (Herbicidal rate of 90% or more (almost completely withered)); P: chickweed, herbicidal effect (criteria 0-5) (chickweed [4]; [26]): 5 (Herbicidal rate of 90% or more (almost completely withered)); G: green foxtail, herbicidal effect (criteria 0-5) (green foxtail [5]; [26]): 3 (Herbicidal rate of 40% or more and less than 70%); F: southern crabgrass, herbicidal effect (criteria 0-5) (southern crabgrass [8]; [26]): 4 (Herbicidal rate of 70% or more and less than 90%); N: redroot pigweed, herbicidal effect (criteria 0-5) (redroot pigweed [9]; [26]): 4 (Herbicidal rate of 70% or more and less than 90%); I: wild oat, herbicidal effect (criteria 0-5) (wild oat [11]; [26]): 4 (Herbicidal rate of 70% or more and less than 90%); J: blackgrass, herbicidal effect (criteria 0-5) (blackgrass [12]; [26]): 5 (Herbicidal rate of 90% or more (almost completely withered)); O: lambsquarters, herbicidal effect (criteria 0-5) (lambsquarters [13]; [26]): 4 (Herbicidal rate of 70% or more and less than 90%); R: persian speedwell, herbicidal effect (criteria 0-5) (persian speedwell [14]; [26]): 5 (Herbicidal rate of 90% or more (almost completely withered)); H: barnyard grass, herbicidal effect (criteria 0-5) (barnyard grass [20]; [26]): 5 (Herbicidal rate of 90% or more (almost completely withered)); M: velvetleaf, herbicidal effect (criteria 0-5) (velvetleaf [25]; [26]): 4 (Herbicidal rate of 70% or more and less than 90%)"
CCc1nn(C)c(=O)c(-c2c(-c3ccc(OC(F)(F)F)cc3)sc3ccc(F)cc23)c1O [2-412],1 (Herbicidal rate of 5% or more and less than 20%),4 (Herbicidal rate of 70% or more and less than 90%),0 (Herbicidal rate of 5% or less (almost no effect)),3 (Herbicidal rate of 40% or more and less than 70%),0 (Herbicidal rate of 5% or less (almost no effect)),0 (Herbicidal rate of 5% or less (almost no effect)),0 (Herbicidal rate of 5% or less (almost no effect)),0 (Herbicidal rate of 5% or less (almost no effect)),0 (Herbicidal rate of 5% or less (almost no effect)),4 (Herbicidal rate of 70% or more and less than 90%),0 (Herbicidal rate of 5% or less (almost no effect)),0 (Herbicidal rate of 5% or less (almost no effect)),0 (Herbicidal rate of 5% or less (almost no effect)),2 (Herbicidal rate of 20% or more and less than 40%),0 (Herbicidal rate of 5% or less (almost no effect)),"K: Italian ryegrass, herbicidal effect grade (Italian ryegrass [1]; [27]): 3 (Herbicidal rate of 40% or more and less than 70%); L: windgrass, herbicidal effect grade (windgrass [2]; [27]): 1 (Herbicidal rate of 5% or more and less than 20%); P: chickweed, herbicidal effect grade (chickweed [4]; [27]): 5 (Herbicidal rate of 90% or more (almost completely withered)); G: green foxtail, herbicidal effect grade (green foxtail [5]; [27]): 4 (Herbicidal rate of 70% or more and less than 90%); F: southern crabgrass, herbicidal effect grade (southern crabgrass [8]; [27]): 3 (Herbicidal rate of 40% or more and less than 70%); N: redroot pigweed, herbicidal effect grade (redroot pigweed [9]; [27]): 5 (Herbicidal rate of 90% or more (almost completely withered)); I: wild oat, herbicidal effect grade (wild oat [11]; [27]): 0 (Herbicidal rate of 5% or less (almost no effect)); J: blackgrass, herbicidal effect grade (blackgrass [12]; [27]): 0 (Herbicidal rate of 5% or less (almost no effect)); O: lambsquarters, herbicidal effect grade (lambsquarters [13]; [27]): 5 (Herbicidal rate of 90% or more (almost completely withered)); R: persian speedwell, herbicidal effect grade (persian speedwell [14]; [27]): 5 (Herbicidal rate of 90% or more (almost completely withered)); H: barnyard grass, herbicidal effect grade (barnyard grass [20]; [27]): 4 (Herbicidal rate of 70% or more and less than 90%); M: velvetleaf, herbicidal effect grade (velvetleaf [25]; [27]): 3 (Herbicidal rate of 40% or more and less than 70%)"

# From patent publication US20230085307A1, “PYRIDAZINONE COMPOUND AND HERBICIDE” (NISSAN CHEMICAL CORPORATION, priority 2019, published 2023)
